Data reported in ChEMBL document CHEMBL4507268 (2021).

Columns and labels:
Details in all cases: Compound concentration 1000.0 nM
[1] = molecular target: Serine/threonine-protein kinase Nek6 (Homo sapiens) (UniProt Q9HC98)
[2] = molecular target: T1, Beta-adrenergic receptor kinase 1 (Homo sapiens) (UniProt P25098)
T1 sequence (whole entry): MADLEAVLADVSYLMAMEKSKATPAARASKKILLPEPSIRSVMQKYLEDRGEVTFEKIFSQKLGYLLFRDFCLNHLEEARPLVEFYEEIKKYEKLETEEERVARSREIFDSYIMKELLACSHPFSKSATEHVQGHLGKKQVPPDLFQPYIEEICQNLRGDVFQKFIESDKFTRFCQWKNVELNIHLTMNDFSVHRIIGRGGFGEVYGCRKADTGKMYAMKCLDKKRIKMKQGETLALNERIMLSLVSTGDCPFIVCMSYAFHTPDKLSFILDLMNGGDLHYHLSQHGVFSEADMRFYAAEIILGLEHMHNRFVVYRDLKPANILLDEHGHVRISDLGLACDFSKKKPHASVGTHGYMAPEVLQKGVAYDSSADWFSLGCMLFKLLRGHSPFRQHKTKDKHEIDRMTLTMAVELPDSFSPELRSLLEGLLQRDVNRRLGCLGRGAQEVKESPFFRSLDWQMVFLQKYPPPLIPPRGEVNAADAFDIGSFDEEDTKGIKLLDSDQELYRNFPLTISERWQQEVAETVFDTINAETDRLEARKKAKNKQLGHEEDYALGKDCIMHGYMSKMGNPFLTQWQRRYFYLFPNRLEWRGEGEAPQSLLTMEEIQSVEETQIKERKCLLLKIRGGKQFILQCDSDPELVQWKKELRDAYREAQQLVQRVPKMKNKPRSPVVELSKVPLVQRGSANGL

[3] = system: Epidermal growth factor receptor (Homo sapiens), P00533 [UNDEFINED MUTATION]
[4] = system: Mast/stem cell growth factor receptor Kit (Homo sapiens), P10721 [D816H]
[5] = system: Tyrosine-protein kinase ABL1 (Homo sapiens), P00519 [Q252H]
[6] = molecular target: LIM domain kinase 1 (Homo sapiens) (UniProt P53667)
[7] = molecular target: T2, TGF-beta receptor type-1 (Homo sapiens) (UniProt P36897)
T2 sequence (whole entry): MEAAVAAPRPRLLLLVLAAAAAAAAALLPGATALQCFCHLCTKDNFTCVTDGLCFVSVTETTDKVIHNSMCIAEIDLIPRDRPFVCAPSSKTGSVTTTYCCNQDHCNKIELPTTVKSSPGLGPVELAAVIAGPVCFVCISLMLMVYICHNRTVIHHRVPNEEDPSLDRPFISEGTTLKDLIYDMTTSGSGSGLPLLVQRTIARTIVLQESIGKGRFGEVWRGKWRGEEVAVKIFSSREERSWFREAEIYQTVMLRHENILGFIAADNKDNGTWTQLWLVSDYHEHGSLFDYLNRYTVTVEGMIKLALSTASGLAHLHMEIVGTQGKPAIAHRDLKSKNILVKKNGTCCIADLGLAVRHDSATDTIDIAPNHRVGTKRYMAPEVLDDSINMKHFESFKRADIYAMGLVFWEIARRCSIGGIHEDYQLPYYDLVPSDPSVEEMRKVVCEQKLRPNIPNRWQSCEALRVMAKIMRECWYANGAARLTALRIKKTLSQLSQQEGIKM

[8] = molecular target: T3, Phosphorylase b kinase regulatory subunit alpha, liver isoform (Homo sapiens) (UniProt P46019)
T3 sequence (whole entry): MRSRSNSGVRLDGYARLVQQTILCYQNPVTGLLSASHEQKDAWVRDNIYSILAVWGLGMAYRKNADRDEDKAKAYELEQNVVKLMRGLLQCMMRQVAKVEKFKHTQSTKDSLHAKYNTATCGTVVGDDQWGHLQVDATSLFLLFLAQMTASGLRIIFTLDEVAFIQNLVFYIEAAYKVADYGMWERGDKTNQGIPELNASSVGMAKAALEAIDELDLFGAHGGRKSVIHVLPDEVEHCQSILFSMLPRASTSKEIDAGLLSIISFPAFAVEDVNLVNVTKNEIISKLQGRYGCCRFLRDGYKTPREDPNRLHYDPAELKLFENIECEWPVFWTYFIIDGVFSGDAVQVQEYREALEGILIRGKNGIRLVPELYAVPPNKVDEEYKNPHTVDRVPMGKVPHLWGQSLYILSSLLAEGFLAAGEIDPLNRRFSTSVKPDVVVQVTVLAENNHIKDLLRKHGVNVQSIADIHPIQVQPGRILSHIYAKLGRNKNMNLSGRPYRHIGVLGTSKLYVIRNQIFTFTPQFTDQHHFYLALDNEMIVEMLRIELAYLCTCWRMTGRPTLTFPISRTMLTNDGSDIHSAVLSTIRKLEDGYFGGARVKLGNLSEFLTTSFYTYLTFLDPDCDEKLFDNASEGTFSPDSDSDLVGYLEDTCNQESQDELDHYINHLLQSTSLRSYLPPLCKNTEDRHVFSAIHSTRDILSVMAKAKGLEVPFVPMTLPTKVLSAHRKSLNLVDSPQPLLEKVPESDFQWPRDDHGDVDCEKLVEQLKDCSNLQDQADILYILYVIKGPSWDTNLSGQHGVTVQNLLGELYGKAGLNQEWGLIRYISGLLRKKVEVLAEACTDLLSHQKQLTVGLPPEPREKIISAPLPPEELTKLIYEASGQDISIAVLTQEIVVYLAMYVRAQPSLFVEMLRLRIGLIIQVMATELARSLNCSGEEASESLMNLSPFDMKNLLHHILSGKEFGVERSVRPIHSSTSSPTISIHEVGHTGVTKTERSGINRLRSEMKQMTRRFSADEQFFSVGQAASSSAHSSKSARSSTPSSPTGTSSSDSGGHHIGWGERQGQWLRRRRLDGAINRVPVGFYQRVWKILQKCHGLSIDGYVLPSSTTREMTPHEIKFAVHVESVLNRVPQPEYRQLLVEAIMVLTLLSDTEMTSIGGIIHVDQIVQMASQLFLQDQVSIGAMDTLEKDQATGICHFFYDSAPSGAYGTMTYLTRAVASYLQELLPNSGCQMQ

[9] = molecular target: Homeodomain-interacting protein kinase 2 (Homo sapiens) (UniProt Q9H2X6)
[10] = molecular target: Mitogen-activated protein kinase kinase kinase 4 (Homo sapiens) (UniProt Q9Y6R4)
[11] = molecular target: Homeodomain-interacting protein kinase 3 (Homo sapiens) (UniProt Q9H422)

Measured: residual activity

Sequence of Homeodomain-interacting protein kinase 2 (Homo sapiens) (Q9H2X6 whole entry, looked up): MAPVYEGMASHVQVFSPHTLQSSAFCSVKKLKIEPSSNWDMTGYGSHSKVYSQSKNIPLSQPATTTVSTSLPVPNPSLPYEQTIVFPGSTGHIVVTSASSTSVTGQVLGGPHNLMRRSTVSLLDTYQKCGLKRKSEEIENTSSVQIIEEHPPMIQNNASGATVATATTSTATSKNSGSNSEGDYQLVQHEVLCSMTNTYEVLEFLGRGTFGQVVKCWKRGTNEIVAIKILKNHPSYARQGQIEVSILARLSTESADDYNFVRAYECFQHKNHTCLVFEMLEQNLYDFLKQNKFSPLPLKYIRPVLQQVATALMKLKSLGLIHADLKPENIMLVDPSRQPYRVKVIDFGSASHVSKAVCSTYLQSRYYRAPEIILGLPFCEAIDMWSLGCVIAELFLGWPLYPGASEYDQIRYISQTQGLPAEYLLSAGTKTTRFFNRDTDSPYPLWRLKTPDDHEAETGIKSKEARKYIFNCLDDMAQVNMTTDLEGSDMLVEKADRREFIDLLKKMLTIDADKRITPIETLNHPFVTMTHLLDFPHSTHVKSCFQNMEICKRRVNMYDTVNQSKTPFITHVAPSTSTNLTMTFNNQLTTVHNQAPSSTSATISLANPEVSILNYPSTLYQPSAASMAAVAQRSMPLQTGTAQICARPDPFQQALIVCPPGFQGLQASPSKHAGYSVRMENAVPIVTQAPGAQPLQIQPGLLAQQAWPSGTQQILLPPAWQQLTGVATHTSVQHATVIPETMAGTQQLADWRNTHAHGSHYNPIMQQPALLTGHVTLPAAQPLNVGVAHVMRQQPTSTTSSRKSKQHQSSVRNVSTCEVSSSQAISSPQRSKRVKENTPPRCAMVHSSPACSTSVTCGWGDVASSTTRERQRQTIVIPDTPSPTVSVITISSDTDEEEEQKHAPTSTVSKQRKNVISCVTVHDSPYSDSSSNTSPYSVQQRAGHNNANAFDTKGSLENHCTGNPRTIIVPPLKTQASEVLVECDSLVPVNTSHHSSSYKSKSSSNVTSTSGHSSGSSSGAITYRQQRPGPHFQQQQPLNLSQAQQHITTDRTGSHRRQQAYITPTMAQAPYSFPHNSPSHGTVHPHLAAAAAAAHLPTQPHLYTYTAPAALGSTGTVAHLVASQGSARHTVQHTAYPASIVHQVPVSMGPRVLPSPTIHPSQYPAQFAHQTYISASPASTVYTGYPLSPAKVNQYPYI
Sequence of Serine/threonine-protein kinase Nek6 (Homo sapiens) (Q9HC98 whole entry): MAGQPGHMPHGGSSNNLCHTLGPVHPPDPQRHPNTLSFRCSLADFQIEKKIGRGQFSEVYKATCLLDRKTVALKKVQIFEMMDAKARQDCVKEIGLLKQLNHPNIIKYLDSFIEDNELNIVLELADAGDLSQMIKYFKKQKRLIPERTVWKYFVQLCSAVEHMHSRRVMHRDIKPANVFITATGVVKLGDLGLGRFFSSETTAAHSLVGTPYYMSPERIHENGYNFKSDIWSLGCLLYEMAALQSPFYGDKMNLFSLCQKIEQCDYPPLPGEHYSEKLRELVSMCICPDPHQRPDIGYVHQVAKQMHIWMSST
Sequence of Mitogen-activated protein kinase kinase kinase 4 (Homo sapiens) (Q9Y6R4 whole entry): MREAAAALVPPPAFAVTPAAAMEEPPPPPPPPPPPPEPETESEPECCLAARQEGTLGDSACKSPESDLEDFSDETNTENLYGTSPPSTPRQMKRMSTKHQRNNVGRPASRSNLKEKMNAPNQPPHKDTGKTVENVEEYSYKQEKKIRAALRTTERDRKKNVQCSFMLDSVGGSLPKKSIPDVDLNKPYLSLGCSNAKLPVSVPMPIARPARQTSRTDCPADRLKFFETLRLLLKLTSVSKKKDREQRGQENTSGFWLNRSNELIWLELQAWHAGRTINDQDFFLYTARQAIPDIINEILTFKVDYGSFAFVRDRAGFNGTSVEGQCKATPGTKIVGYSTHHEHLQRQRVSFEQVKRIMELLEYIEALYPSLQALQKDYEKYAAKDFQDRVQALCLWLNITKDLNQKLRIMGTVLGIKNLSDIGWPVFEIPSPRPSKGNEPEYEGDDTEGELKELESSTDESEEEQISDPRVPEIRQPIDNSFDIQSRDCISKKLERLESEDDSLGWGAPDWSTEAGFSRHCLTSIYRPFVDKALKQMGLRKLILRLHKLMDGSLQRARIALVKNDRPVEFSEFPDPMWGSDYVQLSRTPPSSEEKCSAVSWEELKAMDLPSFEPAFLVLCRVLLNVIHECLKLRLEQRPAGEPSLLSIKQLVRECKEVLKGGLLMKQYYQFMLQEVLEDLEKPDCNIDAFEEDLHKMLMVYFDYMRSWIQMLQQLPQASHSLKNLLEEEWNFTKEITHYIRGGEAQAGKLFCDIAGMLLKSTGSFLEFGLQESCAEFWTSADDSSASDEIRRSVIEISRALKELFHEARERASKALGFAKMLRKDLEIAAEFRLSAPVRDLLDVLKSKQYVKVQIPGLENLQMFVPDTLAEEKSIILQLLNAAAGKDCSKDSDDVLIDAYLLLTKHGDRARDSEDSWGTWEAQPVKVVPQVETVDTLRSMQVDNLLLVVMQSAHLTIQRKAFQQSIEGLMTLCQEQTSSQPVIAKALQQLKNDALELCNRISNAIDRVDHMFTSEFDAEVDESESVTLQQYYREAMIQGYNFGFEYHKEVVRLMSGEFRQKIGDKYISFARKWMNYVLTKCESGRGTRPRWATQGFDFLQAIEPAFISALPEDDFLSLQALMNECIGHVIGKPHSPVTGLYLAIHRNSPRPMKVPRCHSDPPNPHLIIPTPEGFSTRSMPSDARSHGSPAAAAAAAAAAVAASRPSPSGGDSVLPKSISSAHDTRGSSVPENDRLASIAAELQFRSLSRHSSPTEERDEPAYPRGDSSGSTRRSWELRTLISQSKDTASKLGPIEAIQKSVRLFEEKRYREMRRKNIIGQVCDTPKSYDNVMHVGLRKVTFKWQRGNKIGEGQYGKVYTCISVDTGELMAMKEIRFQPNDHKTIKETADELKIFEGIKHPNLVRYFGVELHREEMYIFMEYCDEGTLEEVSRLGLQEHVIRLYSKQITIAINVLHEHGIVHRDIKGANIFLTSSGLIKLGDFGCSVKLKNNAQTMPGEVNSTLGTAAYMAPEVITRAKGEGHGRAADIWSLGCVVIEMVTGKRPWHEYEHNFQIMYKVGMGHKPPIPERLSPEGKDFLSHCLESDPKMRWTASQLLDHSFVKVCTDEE
Sequence of Homeodomain-interacting protein kinase 3 (Homo sapiens) (Q9H422 whole entry, looked up): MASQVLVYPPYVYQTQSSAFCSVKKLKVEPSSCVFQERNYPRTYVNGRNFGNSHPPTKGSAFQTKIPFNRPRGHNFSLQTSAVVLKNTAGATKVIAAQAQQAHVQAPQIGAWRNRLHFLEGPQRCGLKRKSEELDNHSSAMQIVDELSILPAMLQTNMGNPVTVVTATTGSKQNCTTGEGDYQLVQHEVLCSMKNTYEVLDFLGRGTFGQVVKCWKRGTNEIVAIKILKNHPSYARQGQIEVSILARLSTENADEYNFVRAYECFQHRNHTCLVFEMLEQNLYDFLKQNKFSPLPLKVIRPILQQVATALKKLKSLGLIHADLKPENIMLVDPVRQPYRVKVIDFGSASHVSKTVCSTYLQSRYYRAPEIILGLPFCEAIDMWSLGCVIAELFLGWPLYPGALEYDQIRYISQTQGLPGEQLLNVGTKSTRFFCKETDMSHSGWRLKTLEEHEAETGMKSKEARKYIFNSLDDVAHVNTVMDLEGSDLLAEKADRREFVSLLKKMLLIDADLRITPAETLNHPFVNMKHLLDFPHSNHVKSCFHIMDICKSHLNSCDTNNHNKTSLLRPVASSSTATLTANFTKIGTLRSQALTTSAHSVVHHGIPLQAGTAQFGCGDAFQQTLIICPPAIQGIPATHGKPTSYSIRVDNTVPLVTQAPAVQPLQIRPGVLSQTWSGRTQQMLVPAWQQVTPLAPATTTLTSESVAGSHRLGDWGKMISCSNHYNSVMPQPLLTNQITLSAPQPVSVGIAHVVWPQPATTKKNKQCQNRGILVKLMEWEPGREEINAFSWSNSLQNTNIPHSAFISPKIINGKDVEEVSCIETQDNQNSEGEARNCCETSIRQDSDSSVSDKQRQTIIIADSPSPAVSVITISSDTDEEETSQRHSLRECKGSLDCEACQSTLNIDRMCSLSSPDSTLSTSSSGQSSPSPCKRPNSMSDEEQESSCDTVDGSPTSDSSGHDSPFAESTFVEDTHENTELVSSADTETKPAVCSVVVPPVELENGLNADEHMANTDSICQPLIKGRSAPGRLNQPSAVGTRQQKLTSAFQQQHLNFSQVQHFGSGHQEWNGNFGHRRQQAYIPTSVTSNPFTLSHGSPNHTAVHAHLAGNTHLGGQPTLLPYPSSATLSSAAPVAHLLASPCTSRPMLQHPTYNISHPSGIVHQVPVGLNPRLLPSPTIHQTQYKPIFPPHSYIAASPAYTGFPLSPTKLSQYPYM
Sequence of LIM domain kinase 1 (Homo sapiens) (P53667 whole entry, looked up, the tested form may be a part): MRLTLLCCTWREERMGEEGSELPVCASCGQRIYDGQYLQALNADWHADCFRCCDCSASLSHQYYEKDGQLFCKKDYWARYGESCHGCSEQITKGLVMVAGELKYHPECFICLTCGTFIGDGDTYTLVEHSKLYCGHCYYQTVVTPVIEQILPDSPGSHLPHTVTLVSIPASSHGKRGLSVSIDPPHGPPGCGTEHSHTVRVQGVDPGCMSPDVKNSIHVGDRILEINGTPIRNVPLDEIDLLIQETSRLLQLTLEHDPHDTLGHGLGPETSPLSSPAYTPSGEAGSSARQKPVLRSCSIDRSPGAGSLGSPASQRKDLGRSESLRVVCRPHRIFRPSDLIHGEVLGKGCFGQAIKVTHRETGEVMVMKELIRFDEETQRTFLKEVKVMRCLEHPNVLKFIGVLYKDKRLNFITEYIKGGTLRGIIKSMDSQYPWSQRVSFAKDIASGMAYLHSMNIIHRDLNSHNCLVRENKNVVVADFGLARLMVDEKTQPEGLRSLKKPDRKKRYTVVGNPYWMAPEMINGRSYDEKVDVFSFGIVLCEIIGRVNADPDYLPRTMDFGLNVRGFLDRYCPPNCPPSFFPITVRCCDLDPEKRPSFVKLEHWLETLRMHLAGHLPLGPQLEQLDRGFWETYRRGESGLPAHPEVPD

CN1CCN(c2cnc3c(C4CCN(C(=O)c5ccc(OC(F)(F)F)cc5N)CC4)ncnc3c2)CC1 [BAY-885]
inactive: [1] 92% | [2] 100% | [3] 100% | [4] 100% | [5] 79% | [6] 100% | [7] 90% | [8] 100% | [9] 100% | [10] 95% | [11] 100%

Cc1nc(C2CCN(C(=O)c3ccc(OC(F)(F)F)cc3N)CC2)c2ncc(N3CCN(C)CC3)cc2n1 [BAY-693]
inactive: [1] 100% | [2] 92% | [3] 100% | [4] 100% | [5] 81% | [6] 93% | [7] 80% | [8] 100% | [9] 93% | [10] 100% | [11] 96%
